{"source": "patent US12544450B2", "about": "“Medical uses of thiol-functionalized polyglycerol derivatives” (FREIE UNIVERSITÄT BERLIN, priority 2019, dated 2026)", "tested_on": "lung mucus collected from patients with cystic fibrosis", "assay": "Macrorheology of cystic fibrosis lung mucus after treatment with reducing agents", "parameters": "species or system human", "conditions": "30 min at 37° C.; for Viscosity of CF mucus after treatment: frequency sweep at 2% strain, FIG. 8", "procedure": "In order to determine the mucolytic potential of thiol-functionalized polyglycerol derivatives the rheological properties of lung mucus, which was collected from patients with cystic fibrosis, were determined before and after treatment with different reducing or control agents. In addition, mucus from a healthy donor was used as control. Rheological measurements can be generally used to determine both elastic and viscous material components. Clinical samples were obtained freshly from cystic fibrosis (CF) patients at Charité Berlin and put directly on ice after collection. Then, the samples were mixed with a protease inhibitor cocktail (Roche) and aliquoted in 150 μl portions. The samples were then treated with different concentrations of freshly prepared reducing agents for 30 min at 37° C. Control samples were kept on ice throughout the incubation time or treated with phosphate-buffered saline (PBS) and incubated for 30 min at 37° C. After the incubation time all samples were kept on ice until use for the macrorheological studies. Here, a Kinexus instrument (Malvern) with a cone-and-plate setup was used. The cone geometry was 20 mm diameter and a […] angle. Each sample was run with an amplitude sweep mode at an oscillatory frequency of 1 Hz to determine the linear viscoelastic regime. In order to obtain viscosity parameters, measurements were repeated at 2% stain in a frequency sweep mode.", "note": "“Also recorded” adds a separate entry of the source."}
{"smiles": "O[C@H](CS)[C@H](O)CS", "note": "(racemic) [DTT, Dithiothreitol]", "values": [{"measurement": "Viscosity of CF mucus after treatment", "value": "reduces the viscosity of CF mucus to level significantly below the viscosity level of mucus from healthy individuals; also recorded: completely destroys the viscosity properties of mucus"}]}
{"smiles": "CC(=O)N[C@@H](CS)C(=O)O", "note": "[NAC, N-acetylcysteine]", "values": [{"measurement": "Elastic modulus (G') of CF mucus after treatment", "setting": "amplitude sweep at 1 Hz, FIG. 7", "value": "comparably slight reduction of the elastic modulus like a treatment with physiological phosphate buffer (PBS)"}, {"measurement": "Viscosity of CF mucus after treatment", "value": "does not show any enhanced mucolytic activity than PBS"}]}
